Results taken from patent US6191288A, “Pyronin antibacterials, process and novel intermediates thereto” (Anadys Pharmaceuticals, Inc., priority 1999, dated 2001).
Values after ≈ are worked out from the molar mass of the structure shown. Like-named read-outs stand apart in the source and are kept apart here.

Assays:
E. coli RNA polymerase = E. coli RNA polymerase (Escherichia coli, UniProt P0A8T7+P0A8V2); assay: In vitro transcription assay, E. coli RNA polymerase; type: biochemical; conditions: for Relative potency in the in vitro transcription assay using E. coli RNA polymerase: FIGS. 20a,b, comparison in words; for IC50: Table II, in vitro transcription, read-out: IC50 E. coli (source of polymerase) (converted)
Experimental: (§1) In vitro transcription reactions. [α-^32 P] UTP-incorporated RNA was synthesized in 50 μl reaction volumes containing transcription buffer (50 mM Tris-HCl, pH 8.0, 200 mM KCL, 10 mM MgCl2, 10 mM DTT and 1.5 μM BSA), […] of DNA template, 4 μM UTP containing 5 μl of [α-^32 P] UTP, 400 μM each of ATP, GTP, and CTP. After incubation for 60 minutes at 25 ° C., the reaction is terminated with 100 μl 10% TCA, which also recipitates the newly transcribed RNA.

S. aureus RNAP = S. aureus RNAP (Staphylococcus aureus, UniProt P47768+Q2G0N5); assay: In vitro transcription assay, S. aureus RNAP; type: biochemical
Experimental: as §1

Human RNAP = Human RNAP (Homo sapiens, UniProt P24928+P30876); assay: biochemical; conditions: Table II, in vitro transcription; read-out: IC50 human pol II
Experimental: as §1

E. coli [1] = assay: Microdilution MIC, E. coli; type: cell-based; conditions: Escherichia coli
Experimental: (§2) Different dilutions are performed for natural product extracts.

S. aureus [2] = assay: MBC, S. aureus; type: cell-based; conditions: Staphylococcus aureus, Table II
Excerpt: (§3) The minimum bactericidal concentration (MBC) is defined as the concentration of antimicrobial agent from which no colonies grow on petri plates or in the medium. In practice, the MBC is arbitrarily defined as the concentration at which a 1000-fold reduction in colony forming units is observed with respect to the original inoculum (survival of 0. 1%). The broth dilution method consists of inoculating the wells from an MIC microliter plate using a 96-well inoculation grid into a fresh microliter plate containing 100 μl. Mueller-Hinton broth per well. The MBC plates are incubated at 37° C. for 16-20 hrs and the MBC values are determined.

E. coli [3] = assay: MBC, E. coli; type: cell-based; conditions: Escherichia coli
Excerpt: as §3

S. aureus [4] = assay: Microdilution MIC, S. aureus; type: cell-based
Experimental: as §2

S. epidermidis = assay: MIC, S. epidermidis; type: cell-based; conditions: Staphylococcus epidermidis, MRSE, E-R
Experimental: as §2

E. faecalis = assay: MIC, E. faecalis; type: cell-based
Experimental: as §2

E. faecium = assay: MIC, E. faecium; type: cell-based; conditions: E. faecium Pen-R
Experimental: as §2

S. pneumonia = assay: MIC, S. pneumonia; type: cell-based
Experimental: as §2

H. influenzae = assay: MIC, H. influenzae; type: cell-based; conditions: Haemophilus influenzae
Experimental: as §2

M. catarrhalis = assay: MIC, M. catarrhalis; type: cell-based; conditions: Moraxella catarrhalis
Experimental: as §2

K. pneumoniae = assay: MIC, K. pneumoniae; type: cell-based; conditions: Klebsiella pneumoniae
Experimental: as §2

E. cloacae = assay: MIC, E. cloacae; type: cell-based; conditions: Enterobacter cloacae
Experimental: as §2

P. aeruginosa = assay: MIC, P. aeruginosa; type: cell-based; conditions: Pseudomonas aeruginosa
Experimental: as §2

M. luteus = assay: MIC, M. luteus; type: cell-based; conditions: Micrococcus luteus; M. luteus ATCC9341
Experimental: as §2

[5] = test system: rifampicin susceptible and rifampicin resistant strains; assay: microbe, parasite or virus in culture
Experimental: The MIC is reported as a range between the concentration at which no growth is observed and the concentration of the dilution which immediately followed. Selected inhibitors from the RNA polymerase screen described above were tested for their ability to inhibit bacterial growth in a broth microdilution assay as follows. […] Dilution of antimicrobial agents is performed in a sterile, covered 96-well microliter plate with flat bottom wells (Costar #9017), and each well contains 100 μL of both +/-antimicrobial agent. The final concentrations of the small molecule antimicrobial agents are 100, 50, 25, 12.5, 6.25, 3.12, 1.56, 0.78, 0.39, 0.20, 0.10, and 0.05 μg/mL, respectively. Different dilutions are performed for natural product extracts. They are first diluted 100-fold with Mueller-Hinton broth. The final dilutions of the natural product extracts are 200, 400, 800, 1600, 3200, 6400, 12800, 25600, 51200, 1×105, 2×105, and 4 ×105-fold. A 1% DMSO (no-drug) row is prepared in Mueller-Hinton broth as a control for 100% growth on each plate. A Mueller-Hinton broth only with no bacteria growth is also included as a negative control for each plate. Ampicillin and rifampicin are used as positive controls against all bacterial strains in every experiment.
The overnight culture of a single colony is diluted in sterile Mueller-Hinton broth so that, after inoculation, each well contains approximately 5×10^5 CFU/mL. Within 15 minutes of preparation, […] of the adjusted inoculum suspension is added to the microliter plate. Each well is diluted with an equal volume of the antimicrobial agent/control substance diluted with sterile Mueller-Hinton broth. The inoculated microliter plate is incubated at 35° C. for 16-20 hours. The turbidity of each well is determined by measuring the absorbance at 595 nm on the BioRad Model 3550-UV microplate reader. The rows containing broth only (no cells) serve as a control, and the rows containing the titration of 1% DMSO serve as a control for 100% growth. The average of the broth only controls is subtracted from the average of each duplicate. This value is subsequently normalized to the average of the DMSO controls.

[6] = test system: myxopyronin-, rifampicin-, and streptolydigin-resistant S. aureus; assay: Growth (optical density at 595 nm) of drug-resistant S. aureus cultured with each drug (FIG. 22); type: cell-based; conditions: FIG. 22, absorbance at 595 nm
Experimental: FIG. 22 is a bar graph showing the growth of bacterial cultures, measured by its optical density as measured by absorbance of light at 595 nanometers, after bacteria resistant to myxopyronins, rifampicin, and streptolydigin were cultured in the presence of each of these drugs.
The site of action of the myxopyronins on RNA polymerase was investigated by assessing the growth of myxopyronin-, rifampicin-, and streptolydigin-resistant S. aureus in the presence of the 90/10 myxopyronin A/B mixture.

[7] = read-out: MIC E. coli*, Table II, mutant strain that has permeabilized cell wall
[8] = rifampicin-resistant S. aureus, read-out: MBC rifR-S. aureus
[9] = Table II, read-out: MBC E. coli

E. coli RNA polymerase, sequence (P0A8V2 whole entry): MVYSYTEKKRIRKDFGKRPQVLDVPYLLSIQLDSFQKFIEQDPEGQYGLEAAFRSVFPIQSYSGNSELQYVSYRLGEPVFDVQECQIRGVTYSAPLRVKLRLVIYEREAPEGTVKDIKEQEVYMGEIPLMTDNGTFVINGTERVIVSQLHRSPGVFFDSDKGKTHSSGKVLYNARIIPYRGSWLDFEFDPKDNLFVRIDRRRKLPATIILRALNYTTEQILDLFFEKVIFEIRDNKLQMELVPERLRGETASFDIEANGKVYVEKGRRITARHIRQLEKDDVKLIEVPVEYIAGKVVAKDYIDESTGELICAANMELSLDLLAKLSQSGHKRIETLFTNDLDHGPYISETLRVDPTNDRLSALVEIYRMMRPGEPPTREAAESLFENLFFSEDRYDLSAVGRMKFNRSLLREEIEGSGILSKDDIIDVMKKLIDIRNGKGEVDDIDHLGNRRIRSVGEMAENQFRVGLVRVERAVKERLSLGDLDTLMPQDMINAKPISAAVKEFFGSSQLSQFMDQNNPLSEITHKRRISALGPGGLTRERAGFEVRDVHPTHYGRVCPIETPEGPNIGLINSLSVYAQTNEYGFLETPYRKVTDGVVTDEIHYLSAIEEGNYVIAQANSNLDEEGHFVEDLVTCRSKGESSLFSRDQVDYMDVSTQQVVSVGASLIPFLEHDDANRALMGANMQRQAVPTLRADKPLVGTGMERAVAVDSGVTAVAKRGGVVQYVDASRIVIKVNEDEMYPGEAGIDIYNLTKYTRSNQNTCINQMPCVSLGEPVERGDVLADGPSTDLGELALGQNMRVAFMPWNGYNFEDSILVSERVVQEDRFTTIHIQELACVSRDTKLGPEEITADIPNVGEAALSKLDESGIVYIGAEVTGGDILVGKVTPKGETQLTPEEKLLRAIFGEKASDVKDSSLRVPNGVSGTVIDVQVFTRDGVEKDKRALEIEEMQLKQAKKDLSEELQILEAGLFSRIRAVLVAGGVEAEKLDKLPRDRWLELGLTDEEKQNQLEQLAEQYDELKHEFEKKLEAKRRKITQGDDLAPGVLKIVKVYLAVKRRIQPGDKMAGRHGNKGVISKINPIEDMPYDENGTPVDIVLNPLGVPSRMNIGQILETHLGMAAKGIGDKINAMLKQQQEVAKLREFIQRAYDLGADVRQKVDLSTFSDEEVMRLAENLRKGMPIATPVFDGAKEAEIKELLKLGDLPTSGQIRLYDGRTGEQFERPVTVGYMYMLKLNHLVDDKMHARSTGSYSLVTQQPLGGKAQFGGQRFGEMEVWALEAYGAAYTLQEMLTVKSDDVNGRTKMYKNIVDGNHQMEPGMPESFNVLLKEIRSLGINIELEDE
E. coli RNA polymerase, sequence (P0A8T7 whole entry): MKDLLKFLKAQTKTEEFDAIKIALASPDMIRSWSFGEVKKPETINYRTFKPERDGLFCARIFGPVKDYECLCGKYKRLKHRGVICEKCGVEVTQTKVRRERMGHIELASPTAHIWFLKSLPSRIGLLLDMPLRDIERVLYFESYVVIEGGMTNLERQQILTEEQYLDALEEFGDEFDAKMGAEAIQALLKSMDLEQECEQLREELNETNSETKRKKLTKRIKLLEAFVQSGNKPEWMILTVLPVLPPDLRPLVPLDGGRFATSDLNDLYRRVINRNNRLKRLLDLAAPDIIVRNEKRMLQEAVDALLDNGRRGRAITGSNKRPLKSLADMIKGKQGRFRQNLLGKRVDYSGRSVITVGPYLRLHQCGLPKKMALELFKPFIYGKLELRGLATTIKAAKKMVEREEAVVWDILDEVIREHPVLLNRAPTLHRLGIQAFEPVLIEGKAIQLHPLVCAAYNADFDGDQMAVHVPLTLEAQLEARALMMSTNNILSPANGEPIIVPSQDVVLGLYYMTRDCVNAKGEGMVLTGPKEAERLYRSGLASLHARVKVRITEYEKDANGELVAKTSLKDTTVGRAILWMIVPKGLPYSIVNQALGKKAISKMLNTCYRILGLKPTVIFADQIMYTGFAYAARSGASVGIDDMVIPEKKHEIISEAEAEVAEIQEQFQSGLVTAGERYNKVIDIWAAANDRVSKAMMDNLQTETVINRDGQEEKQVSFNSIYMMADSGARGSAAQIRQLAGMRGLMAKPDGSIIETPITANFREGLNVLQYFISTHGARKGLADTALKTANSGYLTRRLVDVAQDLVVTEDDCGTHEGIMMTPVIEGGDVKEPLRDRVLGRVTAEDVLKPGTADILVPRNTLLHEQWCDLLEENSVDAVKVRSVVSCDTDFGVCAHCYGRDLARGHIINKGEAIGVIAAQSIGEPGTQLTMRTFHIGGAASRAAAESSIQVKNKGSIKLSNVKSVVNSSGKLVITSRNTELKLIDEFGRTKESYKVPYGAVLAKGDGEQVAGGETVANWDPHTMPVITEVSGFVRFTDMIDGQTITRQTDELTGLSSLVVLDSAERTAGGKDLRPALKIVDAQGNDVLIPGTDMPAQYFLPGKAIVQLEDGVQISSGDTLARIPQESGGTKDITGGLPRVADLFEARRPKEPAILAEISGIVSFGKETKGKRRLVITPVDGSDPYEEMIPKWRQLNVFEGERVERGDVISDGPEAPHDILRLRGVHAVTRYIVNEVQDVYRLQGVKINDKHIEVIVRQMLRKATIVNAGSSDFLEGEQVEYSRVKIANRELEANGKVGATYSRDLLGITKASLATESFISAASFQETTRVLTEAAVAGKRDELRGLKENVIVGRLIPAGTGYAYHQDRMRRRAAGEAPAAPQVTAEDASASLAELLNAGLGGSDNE
E. coli RNA polymerase, sequence (P0A7Z4 whole entry partner): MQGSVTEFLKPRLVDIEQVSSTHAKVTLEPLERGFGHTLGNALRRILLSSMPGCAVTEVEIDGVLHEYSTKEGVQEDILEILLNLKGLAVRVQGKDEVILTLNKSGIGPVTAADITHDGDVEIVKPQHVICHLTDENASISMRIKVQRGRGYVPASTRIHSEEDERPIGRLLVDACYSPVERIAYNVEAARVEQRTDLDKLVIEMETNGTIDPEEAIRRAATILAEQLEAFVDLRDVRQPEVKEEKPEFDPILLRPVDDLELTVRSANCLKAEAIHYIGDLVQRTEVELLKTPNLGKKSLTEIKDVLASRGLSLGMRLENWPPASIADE
E. coli RNA polymerase, sequence (P0A800 whole entry partner): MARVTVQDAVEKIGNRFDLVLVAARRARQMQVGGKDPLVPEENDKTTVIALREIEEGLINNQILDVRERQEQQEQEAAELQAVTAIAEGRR

Compound: CCC/C(C)=C/C=C(\C)C(=O)c1c(O)cc(C(C)CC/C=C/NC(=O)OC)oc1=O (racemic) [MYXO A, (±)-Myxopyronin A]
- Relative potency in the in vitro transcription assay using E. coli RNA polymerase (E. coli RNA polymerase): equally potent as the natural product mixtures
- IC50 (E. coli RNA polymerase): 7.19 µM
- IC50 (S. aureus RNAP): 24 µM
- IC50 (Human RNAP): > 144 µM
- MIC (E. coli [1]; [7]): 8 µg/mL (≈ 19.2 µM)
- MBC (S. aureus [2]; read-out: MBC S. aureus): 15 µg/mL (≈ 35.9 µM)
- MBC (S. aureus [2]; [8]): 15 µg/mL (≈ 35.9 µM)
- MBC (E. coli [3]; read-out: MBC E. coli*): > 30 µg/mL
- MBC (E. coli [3]; [9]): > 30 µg/mL

Compound: CCCC/C(C)=C/C=C(\C)C(=O)c1c(O)cc(C(C)CC/C=C/NC(=O)OC)oc1=O (racemic) [MYXO B, (±)-myxopyronin B]
- Relative potency in the in vitro transcription assay using E. coli RNA polymerase (E. coli RNA polymerase): more potent molecule than A
- IC50 (E. coli RNA polymerase): 1.85 µM
- IC50 (S. aureus RNAP): 1.39 µM
- IC50 (Human RNAP): > 139 µM
- MIC (S. aureus [4]; S. aureus MRSA, E-S, CC-S): 1 µg/mL (≈ 2.32 µM)
- MIC (S. aureus [4]; Staphylococcus aureus, ATCC25923, S. aureus ATCC25923, read-out: MIC): 1 µg/mL (≈ 2.32 µM)
- MIC (S. aureus [4]; Staphylococcus aureus, ATCC29213, S. aureus ATCC29213, read-out: MIC): 1 µg/mL (≈ 2.32 µM)
- MIC (S. aureus [4]; Staphylococcus aureus, MRSA, S. aureus MRSA, E-R, CC-S, read-out: MIC): 1 µg/mL (≈ 2.32 µM)
- MIC (S. aureus [4]; Staphylococcus aureus, Table II, read-out: MIC S. aureus): 0.4 µg/mL (≈ 0.927 µM)
- MIC (S. aureus [4]; Staphylococcus aureus, Table II, rifampicin-resistant S. aureus, read-out: MIC rifR-S. aureus): 0.2 µg/mL (≈ 0.463 µM)
- Fold more potent cell-based (growth inhibitory) activity than myxopyronin A (S. aureus [4]; up to, over the bacteria of Table II): up to 75 fold
- MIC (E. coli [1]; ATCC25922, Table III, E. coli ATCC25922, read-out: MIC): > 64 µg/mL
- MIC (E. coli [1]; Table III, E. coli parent (non-permeable), read-out: MIC): > 64 µg/mL
- MIC (E. coli [1]; Table III, E. coli permeable, read-out: MIC): 1 µg/mL (≈ 2.32 µM)
- MIC (E. coli [1]; [7]): 0.4 µg/mL (≈ 0.927 µM)
- MIC (E. coli [1]; Table II, read-out: MIC E. coli): > 100 µg/mL
- MBC (S. aureus [2]; read-out: MBC S. aureus): 0.4 µg/mL (≈ 0.927 µM)
- MBC (S. aureus [2]; [8]): 0.4 µg/mL (≈ 0.927 µM)
- MBC (E. coli [3]; read-out: MBC E. coli*): 0.2 µg/mL (≈ 0.463 µM)
- MBC (E. coli [3]; [9]): > 100 µg/mL
- MIC (S. epidermidis; CC-R): 1 µg/mL (≈ 2.32 µM)
- MIC (S. epidermidis; CC-S): 4 µg/mL (≈ 9.27 µM)
- MIC (E. faecalis; E. faecalis Pen-S, Vanco-S): 16 µg/mL (≈ 37.1 µM)
- MIC (E. faecalis; Enterococcus faecalis, ATCC29212, E. faecalis ATCC29212, read-out: MIC): 16 µg/mL (≈ 37.1 µM)
- MIC (E. faecalis; Enterococcus faecalis, E. faecalis Pen-R, Vanco-S, read-out: MIC): 8 µg/mL (≈ 18.5 µM)
- MIC (E. faecalis; Enterococcus faecalis, E. faecalis Pen-S, Vanco-S, read-out: MIC): 32 µg/mL (≈ 74.2 µM)
- MIC (E. faecium; Vanco-R): > 64 µg/mL
- MIC (E. faecium; Vanco-S): > 64 µg/mL
- MIC (E. faecium; Enterococcus faecium, Vanco-R, read-out: MIC): 64 µg/mL (≈ 148 µM)
- MIC (E. faecium; Enterococcus faecium, Vanco-S, read-out: MIC): 64 µg/mL (≈ 148 µM)
- MIC (S. pneumonia; S. pneumonia ATCC49619): 8 µg/mL (≈ 18.5 µM)
- MIC (S. pneumonia; S. pneumonia Pen I (MIC 0.12)): 8 µg/mL (≈ 18.5 µM)
- MIC (S. pneumonia; S. pneumonia Pen I (MIC 0.25)): 8 µg/mL (≈ 18.5 µM)
- MIC (S. pneumonia; S. pneumonia Pen I (MIC 1.0)): 8 µg/mL (≈ 18.5 µM)
- MIC (S. pneumonia; S. pneumonia Pen R (MIC 2.0)): 16 µg/mL (≈ 37.1 µM)
- MIC (S. pneumonia; S. pneumonia Pen R (MIC 4.0)): 8 µg/mL (≈ 18.5 µM)
- MIC (S. pneumonia; S. pneumonia Pen S (MIC <0.06)): 8 µg/mL (≈ 18.5 µM)
- MIC (H. influenzae; ATCC49247, H. influenzae ATCC49247): 2 µg/mL (≈ 4.63 µM)
- MIC (H. influenzae; H. influenzae non-typable): 8 µg/mL (≈ 18.5 µM)
- MIC (M. catarrhalis; M. catarrhalis beta lactamase negative): 0.5 µg/mL (≈ 1.16 µM)
- MIC (M. catarrhalis; M. catarrhalis beta lactamase positive): 1 µg/mL (≈ 2.32 µM)
- MIC (K. pneumoniae): > 64 µg/mL
- MIC (E. cloacae): > 64 µg/mL
- MIC (P. aeruginosa; P. aeruginosa ATCC27853): > 64 µg/mL
- MIC (P. aeruginosa; P. aeruginosa, strain not named): > 64 µg/mL
- MIC (M. luteus): 8 µg/mL (≈ 18.5 µM)

Compound: CO[C@H]1/C=C/O[C@@]2(C)Oc3c(C)c(O)c4c(O)c(c(/C=N/N5CCN(C)CC5)c(O)c4c3C2=O)NC(=O)/C(C)=C\C=C\[C@H](C)[C@H](O)[C@@H](C)[C@@H](O)[C@@H](C)[C@H](OC(C)=O)[C@@H]1C [rifampicin]
- MIC ([5]; read-out: MIC against resistant strains, background statement b17): > 10 µM
- MIC ([5]; read-out: MIC against rifampicin resistant strains, Example 11, b337): > 100 µM
- MIC ([5]; read-out: MIC against susceptible strains, Example 11, b337): 10 µM (≈ 8.23 µg/mL)
- MIC ([5]; read-out: MIC against susceptible strains, background statement b17): ~0.01 µM (≈ 0.00823 µg/mL)
- Growth of myxopyronin resistant S. aureus strain in the presence of the drug [6]: inhibits growth
- Growth of rifampicin resistant S. aureus strain in the presence of the drug [6]: continues to grow
- Growth of streptolydigin-resistant S. aureus strain in the presence of the drug [6]: inhibited

Compound: CNC(=O)[C@@H](C)[C@H]1C(=O)/C(=C(O)/C=C/C(C)=C/[C@@H](C)[C@H]2O[C@@]3(C)O[C@H](C=C[C@@]34CO4)[C@@H]2C)C(=O)N1[C@@H]1CC[C@H](O)[C@H](C)O1 [streptolydigin]
- Growth of myxopyronin resistant S. aureus strain in the presence of the drug [6]: inhibits growth
- Growth of rifampicin resistant S. aureus strain in the presence of the drug [6]: inhibits growth
- Growth of streptolydigin-resistant S. aureus strain in the presence of the drug [6]: continues to grow
